Laboratory results published in patent US20230248626A1, “Compositions Comprising (Bio)-Alkanediols” (Symrise AG, priority 0001, published 2023).
In brackets after ≈: the same amount, converted by molar mass.

Experiments:
Format in all cases: cell-based
[1] = system: Candida albicans; assay: MIC test (growth inhibition, 96 well plates, OD); conditions: read-out: Minimum Inhibitory Concentration (MIC)
[2] = system: Corynebacterium jeikeium; assay: MIC test (growth inhibition, 96 well plates, OD); conditions: read-out: Minimum Inhibitory Concentration (MIC)
[3] = system: Escherichia coli; assay: MIC test (growth inhibition, 96 well plates, OD); conditions: read-out: Minimum Inhibitory Concentration (MIC)
[4] = system: Propionibacterium acnes; assay: MIC test (growth inhibition, 96 well plates, OD); conditions: Cutibacterium acnes; read-out: Minimum Inhibitory Concentration (MIC)
[5] = system: Staphylococcus aureus; assay: MIC test (growth inhibition, 96 well plates, OD); conditions: read-out: Minimum Inhibitory Concentration (MIC)
[6] = system: Staphylococcus hominis; assay: MIC test (growth inhibition, 96 well plates, OD); conditions: read-out: Minimum Inhibitory Concentration (MIC)
[7] = system: Aspergillus brasiliensis (AB); assay: Preservation efficacy test (PET), European Pharmacopoeia 5.1.3
In short: (§1)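 Preparations challenged with prescribed inoculums per European Pharmacopoeia 5.1.3, counting microorganisms after the prescribed time. Adequate preservation means a significant fall or no increase in counts.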

[8] = system: Candida albicans (CA); assay: as above
In short: as §1

[9] = system: Escherichia coli (EC); assay: as above
In short: as §1

[10] = system: Pseudomonas aeruginosa (PA); assay: as above
In short: as §1

[11] = system: Staphylococcus aureus (SA); assay: as above
In short: as §1

Question: How did the MIC [1] turn out when `CCCCCC(O)C(C)O` (centres unmarked) [2,3-octanediol] was run?
Answer: 5000 µg/mL (≈ 34.2 mM)

Question: And the MIC [2]?
Answer: 5000 µg/mL (≈ 34.2 mM)

Question: And the MIC [3]?
Answer: 2500 µg/mL (≈ 17.1 mM)

Question: And the MIC [4]?
Answer: > 5000 µg/mL

Question: What about the MIC [5] of the same compound?
Answer: 5000 µg/mL (≈ 34.2 mM)

Question: What about the MIC [6] of the same compound?
Answer: > 5000 µg/mL

Question: And the “number of microorganisms after 2 days” value ([7]; 0.1% in shampoo)?
Answer: 2,300,000

Question: What about the “number of microorganisms after 7 days” value ([7]; 0.1% in shampoo) of the same compound?
Answer: 1,300,000

Question: And the “number of microorganisms after 14 days” value ([7]; 0.1% in shampoo)?
Answer: 250,000

Question: What about the “number of microorganisms after 28 days” value ([7]; 0.1% in shampoo) of the same compound?
Answer: 250,000

Question: What about the “number of microorganisms after 2 days” value ([7]; 0.1% in wet wipes solution) of the same compound?
Answer: 12,000,000

Question: And the “number of microorganisms after 7 days” value ([7]; 0.1% in wet wipes solution)?
Answer: 8,500,000

Question: And the “number of microorganisms after 14 days” value ([7]; 0.1% in wet wipes solution)?
Answer: 9,300,000

Question: And the “number of microorganisms after 28 days” value ([7]; 0.1% in wet wipes solution)?
Answer: 12,000,000

Question: And the “number of microorganisms after 2 days” value ([7]; 0.2% in o/w emulsion)?
Answer: 1,700,000

Question: What about the “number of microorganisms after 7 days” value ([7]; 0.2% in o/w emulsion) of the same compound?
Answer: 2,000,000

Question: What about the “number of microorganisms after 14 days” value ([7]; 0.2% in o/w emulsion) of the same compound?
Answer: 2,100,000

Question: What about the “number of microorganisms after 28 days” value ([7]; 0.2% in o/w emulsion) of the same compound?
Answer: 2,000,000

Question: What about the “number of microorganisms after 2 days” value ([7]; 0.4% in shampoo) of the same compound?
Answer: 1,100,000

Question: And the “number of microorganisms after 7 days” value ([7]; 0.4% in shampoo)?
Answer: 1,100,000

Question: And the “number of microorganisms after 14 days” value ([7]; 0.4% in shampoo)?
Answer: 2,100,000

Question: And the “number of microorganisms after 28 days” value ([7]; 0.4% in shampoo)?
Answer: 410,000

Question: What about the “number of microorganisms after 2 days” value ([8]; 0.1% in shampoo) of the same compound?
Answer: 200,000

Question: What about the “number of microorganisms after 7 days” value ([8]; 0.1% in shampoo) of the same compound?
Answer: 19,000

Question: What about the “number of microorganisms after 14 days” value ([8]; 0.1% in shampoo) of the same compound?
Answer: 390

Question: What about the “number of microorganisms after 28 days” value ([8]; 0.1% in shampoo) of the same compound?
Answer: 1

Question: And the “number of microorganisms after 2 days” value ([8]; 0.1% in wet wipes solution)?
Answer: 5,000,000

Question: What about the “number of microorganisms after 7 days” value ([8]; 0.1% in wet wipes solution) of the same compound?
Answer: 2,400,000

Question: And the “number of microorganisms after 14 days” value ([8]; 0.1% in wet wipes solution)?
Answer: 6,900,000

Question: What about the “number of microorganisms after 28 days” value ([8]; 0.1% in wet wipes solution) of the same compound?
Answer: 5,500,000

Question: And the “number of microorganisms after 2 days” value ([8]; 0.2% in o/w emulsion)?
Answer: 2,000,000

Question: What about the “number of microorganisms after 7 days” value ([8]; 0.2% in o/w emulsion) of the same compound?
Answer: 1,800,000

Question: What about the “number of microorganisms after 14 days” value ([8]; 0.2% in o/w emulsion) of the same compound?
Answer: 1,900,000

Question: And the “number of microorganisms after 28 days” value ([8]; 0.2% in o/w emulsion)?
Answer: 390,000

Question: And the “number of microorganisms after 2 days” value ([8]; 0.4% in shampoo)?
Answer: 44,000

Question: And the “number of microorganisms after 7 days” value ([8]; 0.4% in shampoo)?
Answer: 17,000

Question: And the “number of microorganisms after 14 days” value ([8]; 0.4% in shampoo)?
Answer: 510

Question: What about the “number of microorganisms after 28 days” value ([8]; 0.4% in shampoo) of the same compound?
Answer: 1

Question: What about the “number of microorganisms after 2 days” value ([9]; 0.1% in shampoo) of the same compound?
Answer: 2,600,000

Question: What about the “number of microorganisms after 7 days” value ([9]; 0.1% in shampoo) of the same compound?
Answer: 3,800,000

Question: And the “number of microorganisms after 14 days” value ([9]; 0.1% in shampoo)?
Answer: 1,500,000

Question: What about the “number of microorganisms after 28 days” value ([9]; 0.1% in shampoo) of the same compound?
Answer: 1,300,000

Question: And the “number of microorganisms after 2 days” value ([9]; 0.1% in wet wipes solution)?
Answer: 1,300,000

Question: And the “number of microorganisms after 7 days” value ([9]; 0.1% in wet wipes solution)?
Answer: 2,600,000

Question: What about the “number of microorganisms after 14 days” value ([9]; 0.1% in wet wipes solution) of the same compound?
Answer: 850,000

Question: And the “number of microorganisms after 28 days” value ([9]; 0.1% in wet wipes solution)?
Answer: 1,600

Question: What about the “number of microorganisms after 2 days” value ([9]; 0.2% in o/w emulsion) of the same compound?
Answer: 48,000

Question: What about the “number of microorganisms after 7 days” value ([9]; 0.2% in o/w emulsion) of the same compound?
Answer: 290

Question: And the “number of microorganisms after 14 days” value ([9]; 0.2% in o/w emulsion)?
Answer: 1

Question: And the “number of microorganisms after 28 days” value ([9]; 0.2% in o/w emulsion)?
Answer: 1

Question: And the “number of microorganisms after 2 days” value ([9]; 0.4% in shampoo)?
Answer: 1,100,000

Question: What about the “number of microorganisms after 7 days” value ([9]; 0.4% in shampoo) of the same compound?
Answer: 1,900,000

Question: And the “number of microorganisms after 14 days” value ([9]; 0.4% in shampoo)?
Answer: 2,100,000

Question: And the “number of microorganisms after 28 days” value ([9]; 0.4% in shampoo)?
Answer: 600,000

Question: And the “number of microorganisms after 2 days” value ([10]; 0.1% in shampoo)?
Answer: 280,000

Question: And the “number of microorganisms after 7 days” value ([10]; 0.1% in shampoo)?
Answer: 3,700,000

Question: What about the “number of microorganisms after 14 days” value ([10]; 0.1% in shampoo) of the same compound?
Answer: 13,000,000

Question: And the “number of microorganisms after 28 days” value ([10]; 0.1% in shampoo)?
Answer: 8,100,000

Question: And the “number of microorganisms after 2 days” value ([10]; 0.1% in wet wipes solution)?
Answer: 1,300,000

Question: What about the “number of microorganisms after 7 days” value ([10]; 0.1% in wet wipes solution) of the same compound?
Answer: 630,000

Question: And the “number of microorganisms after 14 days” value ([10]; 0.1% in wet wipes solution)?
Answer: 310,000

Question: And the “number of microorganisms after 28 days” value ([10]; 0.1% in wet wipes solution)?
Answer: 27,000

Question: What about the “number of microorganisms after 2 days” value ([10]; 0.2% in o/w emulsion) of the same compound?
Answer: 1

Question: And the “number of microorganisms after 7 days” value ([10]; 0.2% in o/w emulsion)?
Answer: 1

Question: What about the “number of microorganisms after 14 days” value ([10]; 0.2% in o/w emulsion) of the same compound?
Answer: 1

Question: And the “number of microorganisms after 28 days” value ([10]; 0.2% in o/w emulsion)?
Answer: 1

Question: What about the “number of microorganisms after 2 days” value ([10]; 0.4% in shampoo) of the same compound?
Answer: 21,000

Question: And the “number of microorganisms after 7 days” value ([10]; 0.4% in shampoo)?
Answer: 1

Question: What about the “number of microorganisms after 14 days” value ([10]; 0.4% in shampoo) of the same compound?
Answer: 1

Question: And the “number of microorganisms after 28 days” value ([10]; 0.4% in shampoo)?
Answer: 1

Question: What about the “number of microorganisms after 2 days” value ([11]; 0.1% in shampoo) of the same compound?
Answer: 2,000

Question: And the “number of microorganisms after 7 days” value ([11]; 0.1% in shampoo)?
Answer: 1

Question: What about the “number of microorganisms after 14 days” value ([11]; 0.1% in shampoo) of the same compound?
Answer: 1

Question: And the “number of microorganisms after 28 days” value ([11]; 0.1% in shampoo)?
Answer: 1

Question: What about the “number of microorganisms after 2 days” value ([11]; 0.1% in wet wipes solution) of the same compound?
Answer: 50

Question: What about the “number of microorganisms after 7 days” value ([11]; 0.1% in wet wipes solution) of the same compound?
Answer: 50

Question: What about the “number of microorganisms after 14 days” value ([11]; 0.1% in wet wipes solution) of the same compound?
Answer: 50

Question: And the “number of microorganisms after 28 days” value ([11]; 0.1% in wet wipes solution)?
Answer: 50

Question: What about the “number of microorganisms after 2 days” value ([11]; 0.2% in o/w emulsion) of the same compound?
Answer: 1,300,000

Question: And the “number of microorganisms after 7 days” value ([11]; 0.2% in o/w emulsion)?
Answer: 84,000

Question: And the “number of microorganisms after 14 days” value ([11]; 0.2% in o/w emulsion)?
Answer: 1

Question: And the “number of microorganisms after 28 days” value ([11]; 0.2% in o/w emulsion)?
Answer: 1

Question: What about the “number of microorganisms after 2 days” value ([11]; 0.4% in shampoo) of the same compound?
Answer: 4,000

Question: And the “number of microorganisms after 7 days” value ([11]; 0.4% in shampoo)?
Answer: 1

Question: What about the “number of microorganisms after 14 days” value ([11]; 0.4% in shampoo) of the same compound?
Answer: 1

Question: What about the “number of microorganisms after 28 days” value ([11]; 0.4% in shampoo) of the same compound?
Answer: 1
